The record followed here is publication PMC10363080, “Modulatory Effect of Pyrus pyrifolia Fruit and its Phenolics on Key Enzymes against Metabolic Syndrome: Bioassay-Guided Approach, HPLC Analysis, and In Silico Study” (Plant Foods for Human Nutrition (Dordrecht, Netherlands), 2023).

Molecules are shown by their SMILES. Like-named read-outs stand apart in the source and are kept apart here.

One may read the IC50 as the midpoint of a concentration-inhibition curve.

Assay [1] in a line: Oxygen radical absorbance capacity (ORAC) assay. The conditions noted are these: for ORAC antioxidant activity: Trolox equivalent per gram of sample, mean ± SD, n=3; for ORAC AA (%) antioxidant activity percentage: compared to ascorbic acid (=100). The protocol:
all of analytical grade. An electrothermal 9100 (UK) was used for the determination of melting points (uncorrected). A Jenway model 6800 spectrophotometer was utilized for recording UV spectra. A Tecan, microplate reader, ((Infinite F50, Switzerland)) was used to measure the absorbances. A Bruker NMR system was used for 1H-NMR (400 MHz) and 13C-NMR (100 MHz).
The NMR spectra were determined in CD3OH and DMSO-d6. Chemical shifts are given in δ (ppm) relative to the internal standard TMS. Phenolic acids and flavonoids used in HPLC analysis as well as all other reagents for biological investigations were obtained from Sigma Chemical Company […]
Determination of the antioxidant activity
2,2`-Azino-bis(3-ethylbenzothiazoline-6-sulfonic acid) (ABTS), ferric reducing antioxidant power (FRAP), and oxygen radical absorbance capacity (ORAC) assays were performed according to the previously published procedures. Ascorbic acid was used as a reference antioxidant […]
drug. […]

Another assay deals with T1, α-glucosidase (Saccharomyces cerevisiae, UniProt P53341).
T1 construct: purchased Sigma
T1 sequence (P53341 whole entry): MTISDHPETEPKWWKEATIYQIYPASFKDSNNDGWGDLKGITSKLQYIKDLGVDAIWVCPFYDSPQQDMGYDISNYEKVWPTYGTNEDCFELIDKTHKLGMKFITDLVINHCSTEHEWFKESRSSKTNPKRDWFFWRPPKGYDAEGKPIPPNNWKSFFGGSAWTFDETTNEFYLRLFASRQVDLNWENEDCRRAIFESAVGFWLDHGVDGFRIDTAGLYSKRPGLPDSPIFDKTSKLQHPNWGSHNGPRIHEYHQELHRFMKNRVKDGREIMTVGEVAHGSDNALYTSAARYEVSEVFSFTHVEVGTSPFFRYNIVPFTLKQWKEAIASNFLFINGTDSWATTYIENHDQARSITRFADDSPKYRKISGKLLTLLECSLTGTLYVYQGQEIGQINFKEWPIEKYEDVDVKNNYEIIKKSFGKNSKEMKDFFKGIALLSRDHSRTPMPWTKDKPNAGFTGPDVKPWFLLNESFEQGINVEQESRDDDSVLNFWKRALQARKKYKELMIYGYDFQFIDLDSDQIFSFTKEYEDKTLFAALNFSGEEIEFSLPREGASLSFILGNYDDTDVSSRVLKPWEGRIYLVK
The assay is described as follows: biochemical. As to conditions: isolated compounds, Table S7. As to the method: (§1) Phenolic acids and flavonoids used in HPLC analysis as well as all other reagents for biological investigations were obtained from Sigma Chemical Company […]
(§2) Inhibitory activity against key enzymes related to metabolic syndrome (MS) All assays were performed in 96-well plates. Stock solutions of the extract (100 mg/mL), fractions (100 mg/mL), and isolated compounds (1000 µM) were prepared. Tested samples that exceeded […]
(§3) inhibitory concentration (IC50). The percentage of enzyme inhibition was calculated according to […]
% Inhibition = (A−B) − (C−D) x 100
A is the activity of the enzyme without tested samples, B is the control of A with neither tested samples nor enzyme, C, and D denote the activity of the test solutions with and without the tested […]
α-Glucosidase inhibitory activity
α-Glucosidase inhibition assays were performed according to a previously described method.
The tested samples were mixed with glutathione, α-glucosidase solution (Saccharomyces cerevisiae, EC 3.2.1.20, Sigma) in phosphate buffer , and the chromogenic substrate p-nitrophenyl-D-glucopyranoside (pNPG). Tested samples (50 μL) were incubated with α-glucosidase (100 μL.
0.6 U mL−1) in the presence of phosphate buffer (0.1 M, pH 6.9) for 10 min at 37 °C. Fifty μL of […] pNPG in phosphate buffer (pH 6.9) was added, and the mixture was incubated again for 12 min at 37 °C. Enzyme activity was evaluated by measuring ρ-nitrophenol release from the ρNPG […]
Absorbance at 405 nm was measured. […]

In the next assay the target is xanthine oxidase (XO) (Bos taurus, UniProt P80457). The experiment in a line: Xanthine oxidase (XO) inhibitory activity. The format is biochemical. As to conditions: isolated compounds, Table S7; read-out: Inhibition (IC50) XO. As to the method: all of analytical grade. […]
Sequence of xanthine oxidase (XO) (P80457 2-1332): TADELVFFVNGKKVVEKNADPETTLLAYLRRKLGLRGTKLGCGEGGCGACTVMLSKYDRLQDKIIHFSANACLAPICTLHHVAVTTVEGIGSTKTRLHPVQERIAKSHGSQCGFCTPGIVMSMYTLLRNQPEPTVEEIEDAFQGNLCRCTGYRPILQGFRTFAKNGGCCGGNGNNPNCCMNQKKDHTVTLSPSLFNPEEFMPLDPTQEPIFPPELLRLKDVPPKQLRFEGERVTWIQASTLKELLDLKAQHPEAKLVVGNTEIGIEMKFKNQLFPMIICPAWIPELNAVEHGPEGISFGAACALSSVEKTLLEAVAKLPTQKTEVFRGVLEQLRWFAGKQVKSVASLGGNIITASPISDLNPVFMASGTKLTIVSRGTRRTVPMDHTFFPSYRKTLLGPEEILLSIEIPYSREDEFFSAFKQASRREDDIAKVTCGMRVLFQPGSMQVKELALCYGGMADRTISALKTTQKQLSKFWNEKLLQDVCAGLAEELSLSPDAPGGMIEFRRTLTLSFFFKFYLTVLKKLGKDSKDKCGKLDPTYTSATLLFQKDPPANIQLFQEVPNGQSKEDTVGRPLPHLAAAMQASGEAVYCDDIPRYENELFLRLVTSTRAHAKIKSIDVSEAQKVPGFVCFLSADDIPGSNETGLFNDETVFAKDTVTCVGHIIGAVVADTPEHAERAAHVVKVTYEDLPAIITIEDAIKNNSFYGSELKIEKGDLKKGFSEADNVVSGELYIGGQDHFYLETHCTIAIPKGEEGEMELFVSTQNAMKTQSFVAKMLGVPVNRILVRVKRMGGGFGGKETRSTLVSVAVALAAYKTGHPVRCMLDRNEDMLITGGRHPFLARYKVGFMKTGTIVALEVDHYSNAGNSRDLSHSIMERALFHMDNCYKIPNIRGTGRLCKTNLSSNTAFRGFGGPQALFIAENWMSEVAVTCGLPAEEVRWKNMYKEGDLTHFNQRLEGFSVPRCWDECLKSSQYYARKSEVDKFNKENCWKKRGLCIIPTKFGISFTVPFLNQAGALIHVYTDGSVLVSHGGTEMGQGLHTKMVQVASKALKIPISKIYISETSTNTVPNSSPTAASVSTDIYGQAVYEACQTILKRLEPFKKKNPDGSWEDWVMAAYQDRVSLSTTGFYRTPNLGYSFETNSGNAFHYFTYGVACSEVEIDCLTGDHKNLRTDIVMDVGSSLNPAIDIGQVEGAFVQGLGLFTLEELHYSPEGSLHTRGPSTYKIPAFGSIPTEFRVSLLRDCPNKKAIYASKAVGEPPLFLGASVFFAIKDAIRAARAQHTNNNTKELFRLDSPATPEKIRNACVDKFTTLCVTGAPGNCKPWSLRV
as §1, §2, §3

The next assay addresses ACE1 (Homo sapiens, UniProt P12821). The assay is described as follows: Angiotensin conversion enzyme (ACE) inhibitory activity (HHL substrate). The format is biochemical. As to conditions: isolated compounds, Table S7; read-out: Inhibition (IC50) ACE1. As to the method: as §1, §2, §3
% Inhibition = (A−B) − (C−D) x 100 […]
Pancreatic lipase inhibitory activity […]

Setting [2] is: Inhibition (IC50) α-Glucosidase.

Sequence of ACE1 (P12821 30-1232): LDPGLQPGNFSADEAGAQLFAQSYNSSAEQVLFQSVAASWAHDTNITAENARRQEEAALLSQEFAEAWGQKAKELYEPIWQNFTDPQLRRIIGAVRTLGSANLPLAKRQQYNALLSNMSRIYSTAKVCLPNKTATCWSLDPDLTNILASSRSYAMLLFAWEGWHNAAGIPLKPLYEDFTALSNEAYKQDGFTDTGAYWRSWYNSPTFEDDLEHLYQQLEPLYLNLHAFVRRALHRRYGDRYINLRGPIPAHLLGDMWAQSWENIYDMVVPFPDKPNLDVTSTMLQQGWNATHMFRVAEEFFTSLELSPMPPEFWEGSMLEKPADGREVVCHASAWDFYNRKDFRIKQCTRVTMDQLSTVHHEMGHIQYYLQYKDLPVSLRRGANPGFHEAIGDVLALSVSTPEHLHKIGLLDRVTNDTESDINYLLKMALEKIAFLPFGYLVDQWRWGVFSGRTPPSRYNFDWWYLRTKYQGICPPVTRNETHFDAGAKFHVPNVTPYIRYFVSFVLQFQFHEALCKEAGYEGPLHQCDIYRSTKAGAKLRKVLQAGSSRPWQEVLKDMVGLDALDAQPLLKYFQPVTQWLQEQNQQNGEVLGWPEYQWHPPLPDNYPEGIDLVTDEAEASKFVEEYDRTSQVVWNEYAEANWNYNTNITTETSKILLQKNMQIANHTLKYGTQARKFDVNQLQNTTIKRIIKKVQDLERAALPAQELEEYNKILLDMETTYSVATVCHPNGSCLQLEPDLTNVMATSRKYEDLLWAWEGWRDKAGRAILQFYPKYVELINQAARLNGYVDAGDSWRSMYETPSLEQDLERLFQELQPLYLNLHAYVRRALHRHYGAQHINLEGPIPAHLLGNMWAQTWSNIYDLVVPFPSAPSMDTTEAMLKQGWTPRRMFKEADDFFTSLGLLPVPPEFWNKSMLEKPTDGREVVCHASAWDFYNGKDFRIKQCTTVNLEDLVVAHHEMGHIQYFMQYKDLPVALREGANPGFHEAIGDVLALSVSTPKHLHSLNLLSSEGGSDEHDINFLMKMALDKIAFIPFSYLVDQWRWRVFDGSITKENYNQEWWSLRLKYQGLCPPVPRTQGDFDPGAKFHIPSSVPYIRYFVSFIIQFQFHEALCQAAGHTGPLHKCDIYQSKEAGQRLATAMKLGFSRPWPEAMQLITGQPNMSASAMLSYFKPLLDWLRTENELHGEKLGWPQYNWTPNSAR

Turning to `C[C@@H]1O[C@@H](OC[C@H]2O[C@@H](Oc3c(-c4ccc(O)c(O)c4)oc4cc(O)cc(O)c4c3=O)[C@H](O)[C@@H](O)[C@@H]2O)[C@H](O)[C@H](O)[C@H]1O` [P1, rutin], in assay [1], the ORAC antioxidant activity is listed as 266.30±0.75 μM TE/g and the “ORAC AA (%) antioxidant activity percentage” value amounted to 68.25%.
`O=c1c(O[C@@H]2O[C@H](CO)[C@@H](O)[C@H](O)[C@H]2O)c(-c2ccc(O)c(O)c2)oc2cc(O)cc(O)c12` [P2, isoquercitrin] came in with an IC50 against α-glucosidase (setting [2]) of 1120 ± 380 nM. For the same compound, in assay [1], the ORAC antioxidant activity is recorded as 346.28±0.29 μM TE/g and the “ORAC AA (%) antioxidant activity percentage” value was found to be 88.74%.
As for `COc1cc(-c2oc3cc(O)cc(O)c3c(=O)c2O[C@@H]2O[C@H](CO)[C@@H](O)[C@H](O)[C@H]2O)ccc1O` [P3, isorhamnetin-3-O-β-D-glucopyranoside], the half-inhibitory concentration (IC50) on xanthine oxidase (XO) worked out at 3560 ± 830 nM; on α-glucosidase (read-out: Inhibition (IC50) α-Glucosidase), 1370 ± 860 nM; on ACE1 it was 310 ± 860 nM. The ORAC antioxidant activity in assay [1] is listed as 320.78±0.55 μM TE/g. For the same compound, the “ORAC AA (%) antioxidant activity percentage” value in assay [1] amounted to 82.21%.
`O=C(O)/C=C/c1ccccc1` [P6, cinnamic acid] came in with an IC50 against α-glucosidase (setting [2]) of 750 nM. In assay [1], the ORAC antioxidant activity is reported as 362.55±1.20 μM TE/g and the “ORAC AA (%) antioxidant activity percentage” value worked out at 92.91%. Further, in assay [1] (listed as Cinnamic acid (P6)), the ORAC antioxidant activity is recorded as 362.55 ± 1.20 μM TE/g.
